Test results taken from patent US20240215582A1, “METHODS OF CONTROLLING PLANT PATHOGENS” (Valent BioSciences LLC, priority 2022, published 2024).

Key:
Podosphaera xanthii = experiment: Host plant efficacy assay (cucumber); format: in vivo
Zymoseptoria tritici = experiment: Host plant efficacy assay (wheat); format: in vivo
Ustilago maydis = experiment: In vitro growth on cervinomycin-amended growth media; format: cell-based
Pyrenophora teres = experiment: Host plant efficacy assay (barley); format: in vivo

COc1cc2oc3c(c(=O)c2cc1OC)C(=O)c1c(ccc2cc4c(c(O)c12)C(=O)N1CCOC1(C)C4)C3=O (centres unmarked) [Cervinomycin A2, cervinomycin A2]
90%: % Control Ustilago maydis (Ustilago maydis; 0.063 ppm in growth media)
100%: % Control Ustilago maydis (Ustilago maydis; 0.25 ppm in growth media) | % Control Ustilago maydis (Ustilago maydis; 1 ppm in growth media)
6%: % Control Ustilago maydis (Ustilago maydis; 0.004 ppm in growth media)
12%: % Control Ustilago maydis (Ustilago maydis; 0.016 ppm in growth media)
0 (0 (about 0%)): % control Podosphaera xanthii Cucumber 1DBI (Podosphaera xanthii; 11.3 ppm) | % control Podosphaera xanthii Cucumber 1DBI (Podosphaera xanthii; 45 ppm) | % control Podosphaera xanthii Cucumber 1DBI (Podosphaera xanthii; 180 ppm) | % control Zymoseptoria tritici Wheat 3DAI (Zymoseptoria tritici; 11.3 ppm) | % control Zymoseptoria tritici Wheat 4DBI (Zymoseptoria tritici; 11.3 ppm) | % control Zymoseptoria tritici Wheat 3DAI (Zymoseptoria tritici; 45 ppm) | % control Zymoseptoria tritici Wheat 4DBI (Zymoseptoria tritici; 45 ppm) | % control Zymoseptoria tritici Wheat 3DAI (Zymoseptoria tritici; 180 ppm) | % control Zymoseptoria tritici Wheat 4DBI (Zymoseptoria tritici; 180 ppm) | % control Pyrenophora teres Barley 1DBI (Pyrenophora teres; 11.3 ppm) | % control Pyrenophora teres Barley 1DBI (Pyrenophora teres; 45 ppm) | % control Pyrenophora teres Barley 1DBI (Pyrenophora teres; 180 ppm)
